Measured values published in patent US10538521B2, “Pyrimidine derivative having antimalarial activity” (CARNA BIOSCIENCES, INC., priority 2016, dated 2020).
Where a name gives a salt, the structure may show the parent alone. Read-outs that look alike come from different tables or passages of the source.

Key:
[1] = tested on: K1 strain, a drug resistant strain of Plasmodium falciparum; assay: In vitro antimalarial assay (p-LDH, Malstat), K1 strain; type: cell-based; conditions: read-out: Antimalarial activity (IC50 value), Strain K1
Source text: (§1) For the evaluation of the antimalarial activity of the compound of the present invention, K1 strain, a drug resistant strain of Plasmodium falciparum, and FCR3 strain, a drug sensitive strain thereof, which were generous gift from Professor Kiyoshi Kita of the Graduate School of Medicine and Faculty of Medicine, the University of Tokyo, were used to measure the in vitro antimalarial activity of the compound against those Plasmodium species according to the method established by Otoguro et al. (Otoguro, K., Kohana, A., Manabe, C., Ishiyama, A., Ui, H., Shiomi, K., Yamada, H. & Omura, S.: Potent antimalarial activity of polyether antibiotic, X-206. J. Antibiot., 54: 658-663, (2001)).
(§2) The parasites were grown based on a slightly modified method from the original method reported by Trager and Jensen (Trager, W. and Jensen, J.: Human malaria parasites in continuous culture, Science, 193: 673-677, (1976)), and those which were maintained and sub-cultured by the method were used. More specifically, in a culture dish, erythrocytes infected with the protozoa, which had been sub-cultured using a RPMI 1640 medium to which 10% human plasma had been added and fresh human erythrocytes, were diluted (hematocrit value: 2 to 5%, parasitaemia: 0.25 to 1%), and were cultured at 37° C. in a mixed gas of 3% O2-4% CO2-93% N2, and continuously cultured while changing the medium and adding fresh erythrocytes at 2- or 3-day intervals.
(§3) A drug susceptibility test was performed by modifying the method established by Desjardins et al. (Desjardins, R. E., Canfield, C. J., Haynes, D. E. and Chulay, J. D.: Quantitative assessment of antimalarial activity in vitro by a semiautomated microdilution technique. Antimicrob. Agents Chemother., 16: 710-718 (1979)). More specifically, 190 μL of a suspension of protozoa which had been precultured (hematocrit value: 2%, parasitaemia: 0.5 or 1%) and 10 μL of a solution of a test compound (5% DMSO solution) serially diluted so that the final concentration was 12.5 to 0.0001 μM were put in each well of a 96-well plate, and after mixing, the same was cultured for 72 hours in the above mixed gas.
(§4) For the measurement of the growth of protozoa, the method established by Makler (Makler, M. T., Rise, J. M., Williams, J. A., Bancroft, J. E., Piper, R. C., Gibbins, B. L. and Hinrichs, D. J.: Parasite lactate dehydrogenase as an Assay for Plasmodium falciparum drug sensitivity, Am. J. Med. Hyg., 48: 739-741 (1993)) was modified to colorimetrically determine parasite lactate dehydrogenase (p-LDH) using Malstat reagent (Flow Inc., USA).
(§5) More specifically, 72 hours after the culture, the 96-well plate was directly frozen at −20° C. for 18 hours and melted at 37° C. to hemolyze the protozoan-infected erythrocytes and destroy the protozoa to prepare a crude enzyme solution. 100 μL of Malstat reagent and 20 μL of the crude enzyme solution were added to and mixed in each well of another 96-well plate, and after reacting for 15 minutes at room temperature, 20 μL of a nitroblue tetrazolium 2 mg/mL phenazine ethosulfate 0.1 mg/mL=1:1 solution was added to the respective wells, and reaction was performed in dark conditions at room temperature for 2 hours.
(§6) The absorbance of the blue formazan product formed by the reaction was measured at a measurement wavelength of 655 nm by using a microplate reader (Labsystems, Finland) to colorimetrically determine the growth of the protozoa. The 50% growth inhibitory concentration for the protozoa of the compound (IC50 value) was determined based on the concentration-response curve of the compound.

[2] = tested on: FCR3 strain, a drug sensitive strain of Plasmodium falciparum; assay: In vitro antimalarial assay (p-LDH, Malstat), FCR3 strain; type: cell-based; conditions: P. falciparum FCR3 (drug sensitive), 72 h culture, p-LDH readout, read-out: Antimalarial activity (IC50 value), Strain FCR3
Source text: as §1, §2, §3, §4, §5, §6

[3] = P. falciparum K1 (drug resistant), 72 h culture, p-LDH readout

| IC50 [1, 3] | IC50 [2] | Structure (SMILES) | IC50 ([1]; K1, 72 h) |
| --- | --- | --- | --- |
| 0.1 to 1 µM | 0.1 to 1 µM | Cc1nc(Nc2nc(Nc3ccn4ccnc4c3)cc(N3CCCCC3)n2)ccc1F [Example 202, N2-(5-fluoro-6-methylpyridin-2-yl)-N4-(imidazo[1,2-a]pyridin-7-yl)-6-(piperidin-1-yl) pyrimidine-2,4-diamine] |  |
| 0.1 to 1 µM | < 0.1 µM | c1cc(Nc2nc(Nc3ccn4ccnc4c3)cc(N3CCOCC3)n2)nc(C2CC2)c1 [Example 110, N2-(6-cyclopropylpyridin-2-yl)-N4-(imidazo[1,2-a]pyridin-7-yl)-6-morpholinopyrimidine-2,4-diamine] |  |
| < 0.1 µM | < 0.1 µM | Cc1cc(C)nc(Nc2nc(Nc3ccn4ccnc4c3)cc(N3CC[C@@H](F)C3)n2)c1 [Example 186, (R)-N2-(4,6-dimethylpyridin-2-yl)-6-(3-fluoropyrrolidin-1-yl)-N4-(imidazo[1,2-a]pyridin-7-yl) pyrimidine-2,4-diamine] |  |
| 1 to 10 µM | 1 to 10 µM | Cc1cccc(Nc2nc(Nc3ccn4ccnc4c3)cc(N3CCN(C)[C@@H](C)C3)n2)n1 [Example 40, (S)-6-(3,4-dimethylpiperazin-1-yl)-N4-(imidazo[1,2-a]pyridin-7-yl)-N2-(6-methylpyridin-2-yl)pyrimidine-2,4-diamine] |  |
| 1 to 10 µM | 1 to 10 µM | Cc1cccc(Nc2nc(Nc3ccn4ccnc4c3)cc(N3CCN(C)CC3)n2)n1 [Example 39, N4-(imidazo[1,2-a]pyridin-7-yl)-6-(4-methylpiperazin-1-yl)-N2-(6-methylpyridin-2-yl)pyrimidine-2,4-diamine] |  |
| < 0.1 µM | < 0.1 µM | Cc1cc(C)nc(Nc2nc(Nc3ccn4ccnc4c3)cc(N3CCC(O)C3)n2)c1 (centres unmarked) [Example 136, 1-(2-((4,6-dimethylpyridin-2-yl)amino)-6-(imidazo[1,2-a]pyridin-7-ylamino)pyrimidin-4-yl)pyrrolidin-3-ol] |  |
| < 0.1 µM | < 0.1 µM | Cc1cc(C)nc(Nc2nc(Nc3ccn4ccnc4c3)cc(N3CCCC3)n2)c1 [Example 135, N2-(4,6-dimethylpyridin-2-yl)-N4-(imidazo[1,2-a]pyridin-7-yl)-6-(pyrrolidin-1-yl)pyrimidine-2,4-diamine] |  |
| < 0.1 µM | < 0.1 µM | CCc1ccnc(Nc2nc(Nc3ccn4ccnc4c3)cc(N3CC[C@H](N(C)C)C3)n2)c1 [Example 126, (S)-6-(3-(dimethylamino)pyrrolidin-1-yl)-N2-(4-ethylpyridin-2-yl)-N4-(imidazo[1,2-a]pyridin-7-yl)pyrimidine-2,4-diamine] |  |
| < 0.1 µM | < 0.1 µM | COc1ccnc(Nc2nc(Nc3ccn4ccnc4c3)cc(N3CCOCC3)n2)c1 [Example 48, N4-(imidazo[1,2-a]pyridin-7-yl)-N2-(4-methoxypyridin-2-yl)-6-morpholinopyrimidine-2,4-diamine] |  |
| 0.1 to 1 µM | 0.1 to 1 µM | Cc1cc(C)nc(Nc2nc(Nc3ccccc3)cc(Nc3ccn4ccnc4c3)n2)c1 [Example 195, N2-(4,6-dimethylpyridin-2-yl)-N4-(imidazo[1,2-a]pyridin-7-yl)-N6-phenylpyrimidine-2,4,6-triamine] |  |
| 0.1 to 1 µM | 1 to 10 µM | COc1cccc(Nc2nc(Nc3ccn4ccnc4c3)cc(N3CCCC3)n2)n1 [Example 143, N4-(imidazo[1,2-a]pyridin-7-yl)-N2-(6-methoxypyridin-2-yl)-6-(pyrrolidin-1-yl)pyrimidine-2,4-diamine] |  |
| < 0.1 µM | < 0.1 µM | Cc1cc(C)nc(Nc2nc(Nc3ccn4ccnc4c3)cc(N3CCC(N(C)C)CC3)n2)c1 [Example 134, 6-(4-(dimethylamino)piperidin-1-yl)-N2-(4,6-dimethylpyridin-2-yl)-N4-(imidazo[1,2-a]pyridin-7-yl)pyrimidine-2,4-diamine] |  |
| 0.1 to 1 µM | 0.1 to 1 µM | COc1cc(Nc2ccn3ccnc3c2)nc(Nc2cc(C)cc(C)n2)n1 [Example 86, N2-(4,6-dimethylpyridin-2-yl)-N4-(imidazo[1,2-a]pyridin-7-yl)-6-methoxypyrimidine-2,4-diamine] |  |
| < 0.1 µM | < 0.1 µM | Cc1cc(C)nc(Nc2nc(Nc3ccn4ccnc4c3)cc(N3CCC(C)C3)n2)c1 (centres unmarked) [Example 146, N2-(4,6-dimethylpyridin-2-yl)-N4-(imidazo[1,2-a]pyridin-7-yl)-6-(3-methylpyrrolidin-1-yl)pyrimidine-2,4-diamine] |  |
| < 0.1 µM | < 0.1 µM | CCc1ccnc(Nc2nc(Nc3ccn4ccnc4c3)cc(N3CCC(N4CCCCC4)CC3)n2)c1 [Example 113, 6-([1,4′-bipiperidin]-1′-yl)-N2-(4-ethylpyridin-2-yl)-N4-(imidazo[1,2-a]pyridin-7-yl)pyrimidine-2,4-diamine] |  |
| 1 to 10 µM |  | CC(C)Oc1ccc(Nc2nc(Nc3ccn4ccnc4c3)cc(N3CCN(C)[C@@H](C)C3)n2)cn1 [Example 56, (S)-6-(3,4-dimethylpiperazin-1-yl)-N4-(imidazo[1,2-a]pyridin-7-yl)-N2-(6-isopropoxypyridin-3-yl)pyrimidine-2,4-diamine] |  |
| 1 to 10 µM |  | CCOc1ccc(Nc2nc(Nc3ccn4ccnc4c3)cc(N3CCN(C)[C@@H](C)C3)n2)cn1 [Example 52, (S)-6-(3,4-Dimethylpiperazin-1-yl)-N2-(6-ethoxypyridin-3-yl)-N4-(imidazo[1,2-a]pyridin-7-yl) pyrimidine-2,4-diamine] |  |
| 1 to 10 µM |  | c1cnc(Nc2nc(Nc3ccn4ccnc4c3)cc(N3CCOCC3)n2)nc1 [Example 16, N4-(Imidazo[1,2-a]pyridin-7-yl)-6-morpholino-N2-(pyrimidin-2-yl)pyrimidine-2,4-diamine] |  |
| 1 to 10 µM |  | CC(C)Oc1ccc(Nc2nc(Nc3ccn4ccnc4c3)cc(N3CCN(C)CC3)n2)cn1 [Example 59, N4-(imidazo[1,2-a]pyridin-7-yl)-N2-(6-isopropoxypyridin-3-yl)-6-(4-methylpiperazin-1-yl) pyrimidine-2,4-diamine] |  |
| 1 to 10 µM |  | Oc1ccc(Nc2nc(Nc3ccn4ccnc4c3)cc(N3CCOCC3)n2)cn1 [Example 24, 5-(4-(Imidazo[1,2-a]pyridin-7-ylamino)-6-morpholinopyrimidin-2-ylamino)pyridin-2-ol] |  |
| 1 to 10 µM |  | C=CCOc1ccc(Nc2nc(Nc3ccn4ccnc4c3)cc(N3CCOCC3)n2)cn1 [Example 76, N2-(6-(allyloxy)pyridin-3-yl)-N4-(imidazo[1,2-a]pyridin-7-yl)-6-morpholinopyrimidine-2,4-diamine] |  |
|  |  | c1cc(Nc2nc(Nc3ccn4ccnc4c3)cc(N3CCOCC3)n2)ccn1 [Example 3, N4-(imidazo[1,2-a]pyridin-7-yl)-6-morpholino-N2-(pyridin-4-yl)pyrimidine-2,4-diamine dihydrochloride] | 1 to 10 µM |

| Structure (SMILES) | IC50 [1, 3] | IC50 [2] | IC50 ([1]; K1, 72 h) |
| --- | --- | --- | --- |
| CC(C)COc1ccc(Nc2nc(Nc3ccn4ccnc4c3)cc(N3CCOCC3)n2)cn1 [Example 64, N4-(imidazo[1,2-a]pyridin-7-yl)-N2-(6-isobutoxypyridin-3-yl)-6-morpholinopyrimidine-2,4-diamine] | 0.1 to 1 µM | < 0.1 µM |  |
| CC(C)(C)OCCOc1cccc(Nc2nc(Nc3ccn4ccnc4c3)cc(N3CCCC3)n2)n1 [Example 156, N2-{6-[2-(tert-butoxy)ethoxy]pyridin-2-yl}-N4-(imidazo[1,2-a]pyridin-7-yl)-6-(pyrrolidin-1-yl)pyrimidine-2,4-diamine] | 0.1 to 1 µM | < 0.1 µM |  |
